Data: ChEMBL document CHEMBL1133583, “Design of cancer-specific antitumor agents based on aziridinylcyclopent[b]indoloquinones” (J Med Chem, 2000)

Tests used:
Format in all cases: functional
Colon carcinoma cell = experiment: In vitro cytotoxicity against colon cancer cells; conditions: Homo sapiens
Homo sapiens = species: Homo sapiens; experiment: In vitro cytotoxicity against non-small-cell lung cancer cells; conditions: Cancer cell lines, read-out: Log LC50 (the source's name) (converted)
[1] = In vitro cytotoxicity against Leukemia cancer cells.; conditions: Homo sapiens, Cancer cell lines
Ovarian carcinoma cell = experiment: In vitro cytotoxicity against ovarian cancer cells; conditions: Homo sapiens
Melanoma cell = experiment: In vitro cytotoxicity against melanoma cancer cells; conditions: Homo sapiens
CNS carcinoma cell = experiment: In vitro cytotoxicity against CNS cancer cells; conditions: Homo sapiens
Prostatic carcinoma cell = experiment: In vitro cytotoxicity against prostate cancer cells.; conditions: Homo sapiens, read-out: Log LC50 (the source's name) (converted)
Breast carcinoma cell = experiment: In vitro cytotoxicity against breast cancer cells.; conditions: Homo sapiens
Renal cancer cell line = experiment: (§1) In vitro cytotoxicity against renal cancer cells.; conditions: Homo sapiens, read-out: Log LC50 (the source's name) (converted)
[2] = as §1; conditions: Homo sapiens, Cancer cell lines; read-out: Log LC50 (the source's name) (converted)

| SMILES | LC50 (50% lethal concentration) (Colon carcinoma cell) [µM] | CC50 (Homo sapiens) [µM] | LC50 (lethal concentration 50%) [1] [µM] | LC50 (Ovarian carcinoma cell) [µM] | LC50 (Melanoma cell) [µM] | LC50 (CNS carcinoma cell) [µM] | CC50 (Prostatic carcinoma cell) [µM] | LC50 (concentration killing 50% of cells) (Breast carcinoma cell) [µM] | CC50 (Renal cancer cell line) [µM] | CC50 [2] [µM] |
| --- | --- | --- | --- | --- | --- | --- | --- | --- | --- | --- |
| CC(=O)OCc1[nH]c2c(c1C)C(=O)C(N1CC1)=C(C)C2=O | 8.32 | 33.1 | > 100 | 34.7 | 2.29 | 14.8 | 9.77 | 26.9 | 28.8 | – |
| CC(=O)OC1CCc2c3c(n(C(C)=O)c21)C(=O)C(N1CC1)=C(C)C3=O (stereo not drawn) | 17 | 38 | > 100 | 66.1 | 8.71 | 17.8 | 19.5 | 31.6 | 16.6 | – |
| CC1=C(N2CC2)C(=O)c2[nH]c(C)c(C)c2C1=O | 89.1 | 50.1 | > 100 | > 100 | 70.8 | > 100 | > 100 | > 100 | > 100 | – |
| CC1=C(N2CC2)C(=O)c2c([nH]c(CO)c2C)C1=O | 47.9 | 42.7 | > 100 | > 100 | 4.07 | > 100 | 16.6 | 27.5 | 29.5 | – |
| CC(=O)OCc1[nH]c2c(c1C)C(=O)C(C)=C(N1CC1)C2=O | > 100 | 79.4 | > 100 | > 100 | 70.8 | > 100 | > 100 | > 100 | – | 72.4 |
| CC1=C(N2CC2)C(=O)c2[nH]c3c(c2C1=O)CCC3O (stereo not drawn) | 35.5 | 60.3 | 87.1 | 89.1 | 14.1 | 28.8 | 31.6 | 33.9 | – | 18.6 |
| CC1=C(N2CC2)C(=O)c2[nH]c3c(c2C1=O)CCC3=O | 3.63 | 4.27 | > 100 | 13.8 | 1.02 | 7.41 | 15.8 | 12.6 | 4.57 | – |
| COC1CCc2c1[nH]c1c2C(=O)C(C)=C(N2CC2)C1=O (stereo not drawn) | 47.9 | 63.1 | 87.1 | > 100 | 12 | 67.6 | 34.7 | 46.8 | – | 26.3 |
| CC(=O)OC1CCc2c1[nH]c1c2C(=O)C(C)=C(N2CC2)C1=O (stereo not drawn) | 14.1 | 22.4 | 50.1 | 39.8 | 10.2 | 20 | 23.4 | 29.5 | 19.1 | – |
| CC1=C(N2CC2)C(=O)c2c([nH]c(C)c2C)C1=O | – | 51.3 | – | – | – | – | > 100 | – | – | > 100 |
| CC1=C(N2CC2)C(=O)c2[nH]c(CO)c(C)c2C1=O | 63.1 | 79.4 | > 100 | > 100 | 39.8 | 89.1 | 63.1 | 89.1 | – | 58.9 |
